The source of these data is US9283199B2, “Halogenated aliphatic carboxylic acids, oligomers and/or polymers thereof and their use in devitalizing external and internal neoplasms” (Cimas Limited, priority 2009, dated 2016).

For data set [1] the following is noted: in vivo; cited from earlier work.
For data set [2] the following is noted: in vivo; cited from earlier work. The source holds these as a separate data set.
Data set [3] has as its system benign, viral, pre-malignant, non-metastasizing malignant and mucosal tumor lesions. Nature of the data set: Clinical study of topical DPA / DPA oligomer treatment of skin pathologies, long term follow-up (Example 1). Format: in vivo, human. The settings on record: all tumor types, 2-8 years follow-up. As to the method:
Patients suffering from benign tumors, viral warts or mucosal membraneus tumors were administered with the tetramer form of DPA. In some cases, DPA, as a monomer, was used. Patients suffering from premalignant or malignant tumors were administered with longer oligomers of DPA.
In most cases, the DPA monomer or oligomer was administered only once and without anesthesia or other special conditions. Only in cases of patients suffering from Recklinghausen disease (a multiple form of peripheral Neurofibromatosis), when the number of skin tumor lesions was more than 100, multiple treatment sessions were performed. […]
The safety of DPA oligomer treatment was assessed by evaluating the treated skin lesion appearance, local skin reaction, vital sign measurements, adverse events and concomitant medications taken by the patient. […]
At the 3-week, 6-week and 12-week post-treatment visit(s), a clinical assessment was performed to determine whether treated lesions were visible at the target site. Pigmented lesions, suspected of being malignant, were further evaluated microscopically by the excision of a biopsy sample with a 3 mm margin from the lesion, using the radioelectro technique, and histopathologically examining the sample for evidence of residual or recurrence of tumor. […]

The nature of data set [4]: Storage stability of DPA. Format: physicochemical. The conditions noted are these: stored in sealed brown glass containers between −4° C. and +50° C.
For data set [5] the following is noted: cited from earlier work.

Molecules are shown by their SMILES. Where two headings read alike, the source gives them in different places.

Turning to `CC(Cl)(Cl)C(=O)O` [DPA, 2,2-Dichloropropanoic acid], the “accumulation in animal tissues” value in data set [1] is reported as “does not build up in animal tissues”. The “half-life in human blood” value in data set [2] is 36 to 72 h. Further, in data set [3] (Total), the “Very good result (++++) %” value worked out at 82.1%. For the same molecule, in data set [3], the “satisfactory level of clinical results observed, % of the tumors” value is recorded as 99.1%. The “chemoanalytical and biological (efficacy) stability” value in data set [4] is recorded as “at least 5 years”. In addition, the “solubility in water” value in data set [5] (DPA and all of its known breakdown products) is “dissolve easily in water”; in data set [5] (at 25° C.), 90 g/100 ml. Moreover, in data set [5], the “solubility in organic solvents and lipids” value is on record as “insoluble”.
